In publication PMC9030691, “Toxicokinetics of β-Amanitin in Mice and In Vitro Drug–Drug Interaction Potential” (Pharmaceutics, 2022):
“Also recorded” adds a separate entry of the source.

Columns and labels:
OCT2 = biological target: T1, OCT2 (Homo sapiens, UniProt O15244); assay: Uptake of amanitins into HEK293-OCT2 cells; format: in vitro ADME; conditions: 50 μM amanitin, 5 min, 37 °C, HBSS, 20 min preincubation, with and without cimetidine, LC-HRMS, n = 3
T1 construct: expressed in transfected cells; host or cells: HEK293
T1 sequence (O15244 1-555): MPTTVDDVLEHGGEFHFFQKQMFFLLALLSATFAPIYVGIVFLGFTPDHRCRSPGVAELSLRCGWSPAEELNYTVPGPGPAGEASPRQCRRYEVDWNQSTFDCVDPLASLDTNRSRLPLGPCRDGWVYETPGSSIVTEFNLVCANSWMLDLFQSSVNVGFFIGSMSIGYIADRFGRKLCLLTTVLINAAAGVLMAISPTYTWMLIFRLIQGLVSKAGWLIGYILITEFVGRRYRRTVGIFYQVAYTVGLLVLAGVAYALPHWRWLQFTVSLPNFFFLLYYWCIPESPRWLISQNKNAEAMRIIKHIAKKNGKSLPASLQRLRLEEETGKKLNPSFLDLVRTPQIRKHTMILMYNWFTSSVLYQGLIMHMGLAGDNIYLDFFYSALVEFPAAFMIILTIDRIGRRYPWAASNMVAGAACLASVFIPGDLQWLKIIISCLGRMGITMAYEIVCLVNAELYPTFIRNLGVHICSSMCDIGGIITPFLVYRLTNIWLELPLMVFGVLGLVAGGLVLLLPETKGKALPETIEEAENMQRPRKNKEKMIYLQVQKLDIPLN
Description: (§1) HEK293 cells overexpressing OCT2, MATE2-K, OAT1, OAT3, OATP1B1, and OATP1B3 transporters and HEK293-control cells were maintained in a humidified atmosphere of 5% CO2 at 37 °C in DMEM supplemented with 10% FBS and 5 mM non-essential amino acids. In the case of HEK293-OATP1B1, -OATP1B3, and MATE2-K cells, 2 mM sodium butyrate was added to the culture medium to enhance transport activity. Cells were seeded at 2 × 10^5 cells/well in poly-D-lysine-coated 24-well plates. After 24 h, the growth medium was discarded, and attached cells were washed with HBSS and preincubated for 20 min in HBSS at 37 °C. Stock solutions of α- and β-amanitin and representative inhibitors of transporters were diluted in HBSS to make the final concentration: cimetidine 1 mM (for OCT2), cimetidine 100 μM (for MATE2-K), probenecid 100 μM (for OAT1 and OAT3), and rifampin 100 μM (for OATP1B1 and OATP1B3). Uptake of 50 μM α- and β-amanitin was measured in the absence and presence of representative inhibitors for 5 min at 37 °C. Plates were placed immediately on ice, and cells were then washed twice with 1 mL of ice-cold HBSS. Residual HBSS was removed thoroughly from the plates. Subsequently, 150 μL of 80% methanol containing IS was added to each sample well, and the cell plates were shaken gently for 20 min at 4 °C. The remaining steps were the same as described for plasma sample preparation.

OAT1 = biological target: T2, OAT1 (Homo sapiens, UniProt Q4U2R8); assay: Uptake of amanitins into HEK293-OAT1 cells; format: in vitro ADME; conditions: 50 μM amanitin, 5 min, 37 °C, HBSS, 20 min preincubation, with and without probenecid, LC-HRMS, n = 3
T2 construct: expressed in transfected cells; host or cells: HEK293
T2 sequence (Q4U2R8 1-563): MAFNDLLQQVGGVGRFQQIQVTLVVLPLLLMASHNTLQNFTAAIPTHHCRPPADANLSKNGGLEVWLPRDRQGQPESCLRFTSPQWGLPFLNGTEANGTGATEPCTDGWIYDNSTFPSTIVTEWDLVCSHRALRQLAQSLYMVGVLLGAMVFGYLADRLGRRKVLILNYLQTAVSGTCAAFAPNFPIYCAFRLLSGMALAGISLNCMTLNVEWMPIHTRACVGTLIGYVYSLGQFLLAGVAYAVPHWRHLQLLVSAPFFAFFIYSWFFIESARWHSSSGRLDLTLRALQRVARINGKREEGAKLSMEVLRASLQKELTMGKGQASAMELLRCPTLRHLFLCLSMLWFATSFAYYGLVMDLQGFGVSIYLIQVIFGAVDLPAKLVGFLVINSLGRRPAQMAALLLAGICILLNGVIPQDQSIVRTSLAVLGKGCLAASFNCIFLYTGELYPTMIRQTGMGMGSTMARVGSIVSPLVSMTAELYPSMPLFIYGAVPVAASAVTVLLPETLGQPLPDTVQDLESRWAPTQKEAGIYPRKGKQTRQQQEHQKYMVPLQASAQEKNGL
Description: as §1

OATP1B3 = biological target: T3, OATP1B3 (Homo sapiens, UniProt Q9NPD5); assay: Uptake of amanitins into HEK293-OATP1B3 cells; format: in vitro ADME; conditions: 50 μM amanitin, 5 min, 37 °C, HBSS, 20 min preincubation, with and without rifampin 100 μM, LC-HRMS, n = 3
T3 construct: expressed in transfected cells; host or cells: HEK293
Description: as §1

[1] = oral administration of dried powder of Amanita exitialis 60 mg/kg; cited from earlier work
Description: In addition, bile drainage caused more than a 70% reduction in plasma concentration of α- and β-amanitin and reduced hepatic toxicity following the oral administration of dried powder of Amanita exitialis (60 mg/kg). […] However, the toxicokinetics and tissue distribution of β-amanitin (Figure 1) upon ex ...

MATE2-K = MATE2-K (Homo sapiens, UniProt Q86VL8); assay: Uptake of amanitins into HEK293-MATE2-K cells; format: in vitro ADME; parameters: expressed in transfected cells; host or cells: HEK293; conditions: 50 μM amanitin, 5 min, 37 °C, HBSS, 20 min preincubation, with and without cimetidine 100 μM, LC-HRMS, n = 3
Description: as §1

OAT3 = biological target: T4, OAT3 (Homo sapiens, UniProt Q8TCC7); assay: Uptake of amanitins into HEK293-OAT3 cells; format: in vitro ADME; parameters: expressed in transfected cells; host or cells: HEK293; conditions: 50 μM amanitin, 5 min, 37 °C, HBSS, 20 min preincubation, with and without probenecid, LC-HRMS, n = 3
T4 sequence (Q8TCC7 1-542): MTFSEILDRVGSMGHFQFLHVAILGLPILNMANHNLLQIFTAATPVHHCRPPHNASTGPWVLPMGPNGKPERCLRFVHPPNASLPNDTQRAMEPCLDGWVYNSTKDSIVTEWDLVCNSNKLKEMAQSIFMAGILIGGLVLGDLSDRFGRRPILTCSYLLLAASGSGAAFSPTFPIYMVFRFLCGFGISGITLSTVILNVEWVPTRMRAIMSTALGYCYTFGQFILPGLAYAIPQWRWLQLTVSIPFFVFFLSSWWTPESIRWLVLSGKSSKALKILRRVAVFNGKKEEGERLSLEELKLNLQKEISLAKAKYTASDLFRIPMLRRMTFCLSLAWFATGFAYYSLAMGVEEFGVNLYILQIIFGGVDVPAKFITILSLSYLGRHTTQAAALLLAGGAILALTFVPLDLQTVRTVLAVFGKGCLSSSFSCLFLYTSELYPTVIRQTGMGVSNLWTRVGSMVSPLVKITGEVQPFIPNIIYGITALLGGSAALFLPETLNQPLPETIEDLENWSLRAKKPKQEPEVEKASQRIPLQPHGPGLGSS
Description: as §1

T3 sequence (Q9NPD5 whole entry): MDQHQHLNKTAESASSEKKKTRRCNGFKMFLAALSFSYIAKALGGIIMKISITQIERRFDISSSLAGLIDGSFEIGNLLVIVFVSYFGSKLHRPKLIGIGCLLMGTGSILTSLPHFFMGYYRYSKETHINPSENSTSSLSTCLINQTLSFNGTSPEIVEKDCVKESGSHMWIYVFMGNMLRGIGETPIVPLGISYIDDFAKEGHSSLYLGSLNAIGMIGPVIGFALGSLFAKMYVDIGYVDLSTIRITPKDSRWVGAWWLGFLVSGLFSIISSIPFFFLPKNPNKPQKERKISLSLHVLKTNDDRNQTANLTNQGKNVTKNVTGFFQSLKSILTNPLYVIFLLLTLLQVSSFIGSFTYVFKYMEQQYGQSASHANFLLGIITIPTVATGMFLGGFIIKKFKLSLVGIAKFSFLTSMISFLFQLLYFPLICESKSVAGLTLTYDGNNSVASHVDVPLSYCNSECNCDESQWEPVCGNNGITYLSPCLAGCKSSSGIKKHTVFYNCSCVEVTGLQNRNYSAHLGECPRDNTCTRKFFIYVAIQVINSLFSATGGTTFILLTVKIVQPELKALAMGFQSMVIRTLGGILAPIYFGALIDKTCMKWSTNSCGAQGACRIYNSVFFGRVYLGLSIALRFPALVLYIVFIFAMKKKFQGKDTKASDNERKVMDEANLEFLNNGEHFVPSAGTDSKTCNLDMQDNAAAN
MATE2-K, sequence (Q86VL8 1-566 isoform Q86VL8-3): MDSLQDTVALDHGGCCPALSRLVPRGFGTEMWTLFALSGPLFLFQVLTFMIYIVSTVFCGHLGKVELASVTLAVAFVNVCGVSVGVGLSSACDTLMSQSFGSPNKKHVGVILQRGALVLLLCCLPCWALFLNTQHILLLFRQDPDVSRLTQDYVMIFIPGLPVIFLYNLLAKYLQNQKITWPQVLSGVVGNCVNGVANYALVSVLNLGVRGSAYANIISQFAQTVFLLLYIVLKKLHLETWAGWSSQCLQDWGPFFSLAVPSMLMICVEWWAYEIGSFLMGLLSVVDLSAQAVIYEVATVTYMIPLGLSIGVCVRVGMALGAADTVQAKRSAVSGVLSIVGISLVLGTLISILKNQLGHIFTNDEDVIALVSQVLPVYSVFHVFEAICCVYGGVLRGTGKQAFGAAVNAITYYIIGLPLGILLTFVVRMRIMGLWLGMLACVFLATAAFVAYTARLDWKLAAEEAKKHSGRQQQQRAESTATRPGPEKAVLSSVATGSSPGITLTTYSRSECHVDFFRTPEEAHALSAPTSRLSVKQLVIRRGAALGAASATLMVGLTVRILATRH

Row | Compound | Uptake into HEK293-OCT2 cells compared with HEK293 control cells (transport substrate) (OCT2) | Uptake into HEK293-OAT1 cells compared with HEK293 control cells (transport substrate) (OAT1) | Uptake into HEK293-OATP1B3 cells compared with HEK293 control cells (transport substrate) (OATP1B3) | Reduction in plasma concentration caused by bile drainage [1] [%] | Uptake into HEK293-MATE2-K cells compared with HEK293 control cells (transport substrate) (MATE2-K) | Uptake into HEK293-OAT3 cells compared with HEK293 control cells (transport substrate) (OAT3)
1 | α-amanitin [reference compound] | not involved in the active transport | not involved in the active transport | significantly increased | > 70 | not involved in the active transport | but not α-amanitin, showed significantly greater uptake
2 | CC[C@H](C)[C@@H]1NC(=O)CNC(=O)[C@@H]2Cc3c([nH]c4cc(O)ccc34)[S@+]([O-])C[C@H](NC(=O)CNC1=O)C(=O)N[C@@H](CC(=O)O)C(=O)N1C[C@H](O)C[C@H]1C(=O)N[C@@H]([C@@H](C)[C@@H](O)CO)C(=O)N2 [β-amanitin] | not involved in the active transport | not involved in the active transport | significantly increased; also recorded: substrate | > 70 | not involved in the active transport | significantly greater uptake; also recorded: substrate
